{
  "source": "a melting point compilation (Tetko et al.; mined from patent text by program, amines drawn as free bases though some values may be those of a salt)",
  "data": [
    {"units": {"melting point": "°C"}, "values": [
      {"molecule": "COc1ccc(-n2nnnc2C(F)(F)F)c(OC)c1CO", "melting point": "74 to 79"},
      {"molecule": "N#Cc1cnc2cc(F)c(OCc3ccccc3)cc2c1Cl", "melting point": "159 to 160"},
      {"molecule": "Cc1cccc(CN(CCC(=O)O)c2nc(N)nc(Cl)n2)c1", "melting point": "168 to 170"},
      {"molecule": "CC1=NNS(=O)(=O)c2sc(Cl)cc21", "melting point": "182 to 184"},
      {"molecule": "O=c1oc(=O)n(Cc2cccs2)c2ccccc12", "melting point": "137 to 140"},
      {"molecule": "CC(=O)c1ccc(CC(C)NCC(O)c2ccccc2)cc1", "note": "(stereo not drawn)", "melting point": "120 to 135"},
      {"molecule": "Nc1ccc2c3c(cccc13)C(=O)N(CCCCBr)C2=O", "melting point": "175 to 176"},
      {"molecule": "CCC(CC(=O)NC(=O)OC(C)(C)C)Nc1ccc(C)cc1", "note": "(stereo not drawn)", "melting point": "96 to 97"},
      {"molecule": "C=CCN1C(=C)C(=O)N[C@@H](Cc2ccccc2)C1=O", "melting point": "102 to 110"},
      {"molecule": "CCc1ccc(OC)c(-c2csc(NC(=O)c3ccc(C(=O)NCCN4CCCC4)cc3)n2)c1", "melting point": 170},
      {"molecule": "COc1cc2c3ccc(OC)c(OC)c3n(CCCc3ccccc3)c2cc1OC", "melting point": "116 to 118"},
      {"molecule": "CCOC(=O)c1cn(-c2nc(NC(C)(C)C)c(F)cc2F)c2c(Cl)c(F)c(F)c([N+](=O)[O-])c2c1=O", "melting point": "215 to 217"},
      {"molecule": "CCCCCNC(=O)Nc1ccccc1C(=O)NC1CCN(C(c2ccccc2)c2ccccc2)CC1", "melting point": "199 to 201"},
      {"molecule": "CC(C)(C)C(=O)c1ccc(CC(Cc2ccc(C(=O)C(C)(C)C)cc2)C(=O)O)cc1", "melting point": "107 to 109"},
      {"molecule": "Cc1sc2cc(O)ccc2c1C1=C(c2c(C)sc3cc(O)ccc23)C(F)(F)C(F)(F)C1(F)F", "melting point": "236 to 237"},
      {"molecule": "CCCCc1nn(-c2ccccc2C(F)(F)F)c(=O)n1Cc1ccc(-c2ccccc2S(=O)(=O)Nc2ccc([N+](=O)[O-])cc2)cc1", "melting point": "186 to 187"},
      {"molecule": "COC1=Cc2ccc(Cl)cc2C(O)(C2CCN(C)CC2)c2ccsc21", "note": "(stereo not drawn)", "melting point": "200 to 202"},
      {"molecule": "CCn1cc(C(=O)O)c(=O)c2cc(Cl)c(N3CCCC3)cc21", "melting point": 325},
      {"molecule": "O=C1N(Cc2ccc(OC(F)(F)F)cc2)c2ccccc2C12COc1cc3c(cc12)OCO3", "note": "(stereo not drawn)", "melting point": "99 to 101"},
      {"molecule": "CCCN(CCC)C(=O)COc1cc(C)nc(-c2ccccc2)n1", "melting point": "68 to 69"},
      {"molecule": "CC1(C)SCc2ccccc2C1=NO", "melting point": "83 to 84"},
      {"molecule": "CCN(CC)c1ccnc2sc(C(N)=O)c(N)c12", "melting point": "127 to 129"},
      {"molecule": "CCC#CCOc1ccc(C=O)cc1OC", "melting point": "47 to 50"},
      {"molecule": "O=C(NCc1ccc(F)cc1)c1ccnc(N2CCN(CC3CC3)C2=O)c1", "melting point": "150 to 151"},
      {"molecule": "CCCOc1ccc(S(=O)(=O)N2CCN(CC)CC2)cc1-c1nc2cc3ncn(Cc4ccccc4Cl)c3cc2c(=O)[nH]1", "melting point": "225 to 226"},
      {"molecule": "Cc1cc(CC(=O)NCc2cccc3c2C(=O)N(C2CCC(=O)NC2=O)C3=O)on1", "note": "(stereo not drawn)", "melting point": "179 to 181"},
      {"molecule": "CCCCOc1ccc(CCCCCC(=O)O)cc1", "melting point": "39 to 40"},
      {"molecule": "O=C(C[N+](=O)[O-])c1ccc2c(c1)CCN2", "melting point": "172 to 174"},
      {"molecule": "Cn1nc(-c2ccc(F)cc2)c(-c2ccncc2)c1Br", "melting point": 174},
      {"molecule": "Cc1nc2c(C(=O)O)c(C(=O)O)ccc2n1Cc1ccccc1", "melting point": "224 to 226"},
      {"molecule": "O=C1c2[nH]c3cc(O)ccc3c2CC1CC1CCN(Cc2ccccc2)CC1", "note": "(stereo not drawn)", "melting point": "250 to 252"},
      {"molecule": "CCc1cc(OCc2cccc(C(=O)OC)c2)cc(O)c1C(C)=O", "melting point": 132},
      {"molecule": "CC(=O)N1CCN(Cc2ccc(-c3cc4ncnc(Nc5ccc6[nH]ccc6c5)c4s3)cc2)CC1", "melting point": "163 to 180"},
      {"molecule": "CC(C)(C)OC(=O)NC(=N)NC(=O)OCc1ccccc1", "melting point": "125 to 126"},
      {"molecule": "CCOC(=O)c1cc2c(nc1C)CCCCC2", "melting point": "53 to 54"},
      {"molecule": "CC(=O)OC1CCc2oc3ccc(Br)cc3c(=O)c2C1", "note": "(stereo not drawn)", "melting point": 178},
      {"molecule": "CN(C(=O)Nc1nc(OCC(F)(F)F)cc(OCC(F)(F)F)n1)c1ccc(OC(F)(F)F)cc1", "melting point": "100 to 102"},
      {"molecule": "CC(=O)Nc1nc2c(Oc3cc(-c4ccc(C(F)(F)F)cc4O)ncn3)cccc2s1", "melting point": "302 to 304"},
      {"molecule": "CCCCc1oc2ccccc2c1-c1ncc(-c2ccc3c(Br)c(OCc4ccc(C(=O)O)cc4)ccc3c2)o1", "melting point": "281 to 283"},
      {"molecule": "COc1c(C)c(N2CCN(c3ccc(OC(F)F)cc3)CC2)c(C)c2c1OC(C)(C)C2", "melting point": "151 to 152"},
      {"molecule": "CCc1nc2ccc3c(c2nc1CC)OC(COS(=O)(=O)c1ccc(C)cc1)CO3", "note": "(stereo not drawn)", "melting point": "132 to 135"},
      {"molecule": "CC(Cc1cccc([N+](=O)[O-])c1)(NC(=O)CN1C(=O)c2ccccc2C1=O)c1ccccc1", "note": "(stereo not drawn)", "melting point": "172 to 173"},
      {"molecule": "CC(C)(C)NC(=O)OC1CCN(c2cccc(C(F)(F)F)c2)C1=O", "note": "(stereo not drawn)", "melting point": "115 to 117"},
      {"molecule": "CCCc1c(OCCCCCCc2ccc(OC)c(OC)c2Cl)ccc(C(=O)O)c1O", "melting point": "107 to 108"},
      {"molecule": "CCN(Cc1ccccc1)c1ccc(C2OC(=O)c3cc(N(C)C)ccc32)cc1", "note": "(stereo not drawn)", "melting point": "123 to 125"},
      {"molecule": "CCCCCCCCCCCC[C@]1(O)C(=O)O[C@H](C(=O)OC)[C@@]1(O)C(=O)OC", "note": "(racemic)", "melting point": "74 to 76"},
      {"molecule": "CN(C(=O)C(F)(F)F)c1ccc(C2=NC[C@@H](OC(=O)Nc3ccccc3)[C@H](c3ccccc3)O2)cc1", "note": "(racemic)", "melting point": 160},
      {"molecule": "COc1ccc(-n2c(-c3cc(-c4ccc(Cl)cc4)c(N4CCOCC4)s3)nc3ccccc3c2=O)cc1", "melting point": "217 to 218"},
      {"molecule": "CCCC(=O)c1cnc2ccc(O)cc2c1Cl", "melting point": "157 to 160"},
      {"molecule": "CC(C)N1CCN(C(=O)OC2CCN(c3ccc(C(N)=O)cn3)CC2)CC1", "melting point": "200 to 204"},
      {"molecule": "O=C(Nc1nnc(COc2ccccc2Cl)s1)c1ccc2c(c1)CCN(C(=O)CO)C2", "melting point": "133 to 135"},
      {"molecule": "O=C(O)CCSC(C(=O)O)c1ccccc1CCCCCCCCc1ccccc1", "note": "(stereo not drawn)", "melting point": "86 to 87"},
      {"molecule": "Cc1cc(-n2nc(C(F)(F)F)cc2-c2ccc(-c3cscn3)cc2)ccc1S(C)(=O)=O", "melting point": "147 to 149"},
      {"molecule": "NC(=O)c1cccnc1Nc1cccc([N+](=O)[O-])c1", "melting point": "240 to 241"},
      {"molecule": "O=Cc1ccc(O)c(CCl)c1", "melting point": "123 to 124"},
      {"molecule": "CC(C(=O)N(C)C)n1nc(-c2ccccc2)c(Br)c1Br", "note": "(stereo not drawn)", "melting point": "132 to 134"},
      {"molecule": "CCC(c1ccc(Nc2ccccc2)c2ccccc12)c1ccc(Nc2ccccc2)c2ccccc12", "melting point": 115},
      {"molecule": "COC(=O)c1sc2nc(C(C)C)ccc2c1O", "melting point": "80 to 81"},
      {"molecule": "O=c1c2ccccc2ccn1CCC#Cc1ccccn1", "melting point": "85 to 90"},
      {"molecule": "NC(=O)N(O)CC#Cc1cccc(C2=N[C@H](c3ccccc3)CS2)c1", "melting point": "155 to 157"},
      {"molecule": "O=C(O)COc1cc(NS(=O)(=O)c2cccs2)c2ccccc2c1O", "melting point": "155 to 157"},
      {"molecule": "CCn1ncc2c3noc(-c4ccc(Cl)cc4)c3cnc21", "melting point": "248 to 250"},
      {"molecule": "COc1ccc2c(c1)C(Cl)c1ccccc1CO2", "note": "(stereo not drawn)", "melting point": "133 to 134"},
      {"molecule": "Cc1c(Br)c2c(c(C)c1NC(=O)CC(C)(C)C)C(c1ccc(C(C)C)cc1)CO2", "note": "(stereo not drawn)", "melting point": "118 to 119"},
      {"molecule": "O=CN(O)CCCP1(=O)ON2CCN(O1)OP(=O)(CCCN(O)C=O)O2", "note": "(stereo not drawn)", "melting point": "112 to 118"},
      {"molecule": "Cn1c(C(=O)NN2CCCCC2)cc(-c2ccc(Cl)cc2Cl)c1-c1ccc(Cl)cc1", "melting point": 218},
      {"molecule": "Cc1ccccc1CC(=NC#N)NC(NC(=O)CCCc1cccs1)C(C)(C)C", "note": "(stereo not drawn)", "melting point": "154 to 155"},
      {"molecule": "CCOC(=O)C1=C(C)NC(c2cnc(C)s2)=NC1c1ccc(F)cc1Cl", "note": "(stereo not drawn)", "melting point": "107 to 111"}
    ]}
  ]
}
